Assay results taken from patent publication US10201532B2, “Compounds and their use” (ALLECRA THERAPEUTICS GMBH, priority 2010, dated 2019).

What was measured:
[1] = tested on: KPC-2 producing K. pneumoniae (ATCC BAA-1705); test: Synergistic broth micro-dilution MIC (checkerboard); type: cell-based, Klebsiella pneumoniae; details: for MIC of Cefepime in combination with BLI / MIC of Cefotaxime in combination with BLI / MIC of Ceftazidime in combination with BLI / MIC of Ceftobiprole in combination with BLI / MIC of Ertapenem in combination with BLI / MIC of Faropenem in combination with BLI / MIC of Imipenem in combination with BLI / MIC of Meropenem in combination with BLI / MIC of Aztreonam in combination with BLI: ATCC BAA-1705
[2] = target: crude KPC-3 enzyme extract (UniProt Q9F663, H272Y, species not given); test: β-Lactamase inhibitory assay with CENTA substrate; type: biochemical; details: also headed KPC2
Source text: (§1) The Compound-1 was subjected to β-lactamase inhibitory assay to determine IC50 and to compare that with the comparator BLI agents as described elsewhere (Bebrone et. al., Antimicrob. Agents. Chemother, 2001, 45(6): 1868-1871; Jamieson et. al, Antimicrob. Agents. Chemother, 2003, 47(5): 1652-1657). Briefly, enzyme extracts from KPC-2 producing and KPC-3 expressing bacterial gram negative strains were used to study the β-lactamase inhibitory activity and determination of IC50 using CENTA as the substrate for β-lactamase.

[3] = target: T1, crude KPC-2 enzyme extract (Klebsiella pneumoniae, UniProt Q9F663); test: β-Lactamase inhibitory assay with CENTA substrate; type: biochemical
T1 construct: enzyme extracts from KPC-2 producing and KPC-3 expressing bacterial gram negative strains were used; endogenous in cells; host or cells: KPC-2 producing gram-negative strain
Source text: as §1

[4] = tested on: KPC-3 expressing E. coli (J53 R6206); test: Synergistic broth micro-dilution MIC (checkerboard); type: cell-based, Escherichia coli

T1 sequence (Q9F663 25-293 limits assumed): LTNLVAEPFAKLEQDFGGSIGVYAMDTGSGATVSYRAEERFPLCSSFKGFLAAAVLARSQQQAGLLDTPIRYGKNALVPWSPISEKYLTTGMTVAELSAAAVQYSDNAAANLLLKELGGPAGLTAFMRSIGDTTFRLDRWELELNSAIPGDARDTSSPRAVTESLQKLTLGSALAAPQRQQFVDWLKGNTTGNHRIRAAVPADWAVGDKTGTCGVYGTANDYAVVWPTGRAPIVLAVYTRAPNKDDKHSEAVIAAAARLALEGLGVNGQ

O=C(O)[C@H]1/C(=C/CO)O[C@@H]2CC(=O)N21 [Clavulanic acid]
>64 µg/mL: MIC of Ceftazidime in combination with BLI ([1]; BLI at 2 μg/mL) | MIC of Ceftobiprole in combination with BLI ([1]; BLI at 2 μg/mL) | MIC of Faropenem in combination with BLI ([1]; BLI at 2 μg/mL) | MIC of Aztreonam in combination with BLI ([1]; BLI at 4 μg/mL) | MIC of Ceftazidime in combination with BLI ([1]; BLI at 4 μg/mL) | MIC of Ceftobiprole in combination with BLI ([1]; BLI at 4 μg/mL) | MIC of Faropenem in combination with BLI ([1]; BLI at 4 μg/mL) | MIC of Ceftazidime in combination with BLI ([1]; BLI at 8 μg/mL) | MIC of Ceftobiprole in combination with BLI ([1]; BLI at 8 μg/mL) | MIC of Aztreonam in combination with BLI ([1]; BLI at 16 μg/mL) | MIC of Ceftobiprole in combination with BLI ([1]; BLI at 16 μg/mL) | MIC of Faropenem in combination with BLI ([1]; BLI at 16 μg/mL) | MIC of Faropenem in combination with BLI ([1]; BLI at 64 μg/mL)
8 µg/mL: MIC of Cefepime in combination with BLI ([1]; BLI at 64 μg/mL) | MIC of Cefotaxime in combination with BLI ([1]; BLI at 64 μg/mL) | MIC of Ertapenem in combination with BLI ([1]; BLI at 64 μg/mL) | MIC of Cefepime in combination with BLI ([4]; BLI at 2 μg/mL) | MIC of Ceftobiprole in combination with BLI ([4]; BLI at 2 μg/mL) | MIC of Cefepime in combination with BLI ([4]; BLI at 4 μg/mL) | MIC of Ceftobiprole in combination with BLI ([4]; BLI at 4 μg/mL) | MIC of Ceftazidime in combination with BLI ([4]; BLI at 8 μg/mL)
16 µg/mL: MIC of Meropenem in combination with BLI ([1]; BLI at 2 μg/mL) | MIC of Cefotaxime in combination with BLI ([1]; BLI at 16 μg/mL) | MIC of Ceftazidime in combination with BLI ([1]; BLI at 64 μg/mL)
32 to 64 µg/mL: MIC of Cefotaxime in combination with BLI ([1]; BLI at 2 μg/mL) | MIC of Cefotaxime in combination with BLI ([1]; BLI at 4 μg/mL)
<0.5 µg/mL: MIC of Imipenem in combination with BLI ([1]; BLI at 64 μg/mL)
0.5 µg/mL: MIC of Imipenem in combination with BLI ([4]; BLI at 8 μg/mL) | MIC of Meropenem in combination with BLI ([4]; BLI at 8 μg/mL)
1 µg/mL: MIC of Imipenem in combination with BLI ([4]; BLI at 2 μg/mL) | MIC of Meropenem in combination with BLI ([4]; BLI at 2 μg/mL) | MIC of Cefotaxime in combination with BLI ([4]; BLI at 4 μg/mL) | MIC of Imipenem in combination with BLI ([4]; BLI at 4 μg/mL) | MIC of Meropenem in combination with BLI ([4]; BLI at 4 μg/mL) | MIC of Cefepime in combination with BLI ([4]; BLI at 8 μg/mL)
<0.25 µg/mL: MIC of Cefotaxime in combination with BLI ([4]; BLI at 8 μg/mL)
16 to 32 µg/mL: MIC of Cefotaxime in combination with BLI ([1]; BLI at 8 μg/mL)
> 64 µg/mL: MIC ([1]; Klebsiella pneumoniae, ATCCBAA1705, read-out: MIC of BLI alone)
64 µg/mL: MIC of Cefepime in combination with BLI ([1]; BLI at 2 μg/mL) | MIC of Cefepime in combination with BLI ([1]; BLI at 4 μg/mL) | MIC of Ertapenem in combination with BLI ([1]; BLI at 4 μg/mL) | MIC of Ceftazidime in combination with BLI ([1]; BLI at 16 μg/mL) | MIC of Aztreonam in combination with BLI ([1]; BLI at 64 μg/mL) | MIC of Ceftobiprole in combination with BLI ([1]; BLI at 64 μg/mL)
> 8 µg/mL: MIC ([4]; Escherichia coli, read-out: MIC of BLI alone, BLI alone)
4 µg/mL: MIC of Meropenem in combination with BLI ([1]; BLI at 8 μg/mL) | MIC of Meropenem in combination with BLI ([1]; BLI at 16 μg/mL) | MIC of Cefotaxime in combination with BLI ([4]; BLI at 2 μg/mL)
330 µM: IC50 [3]
2 µg/mL: MIC of Imipenem in combination with BLI ([1]; BLI at 16 μg/mL) | MIC of Meropenem in combination with BLI ([1]; BLI at 64 μg/mL) | MIC of Ceftobiprole in combination with BLI ([4]; BLI at 8 μg/mL)
92 µM: IC50 [2]
8 to 16 µg/mL: MIC of Imipenem in combination with BLI ([1]; BLI at 2 μg/mL) | MIC of Imipenem in combination with BLI ([1]; BLI at 4 μg/mL)
32 µg/mL: MIC of Ertapenem in combination with BLI ([1]; BLI at 2 μg/mL) | MIC of Cefepime in combination with BLI ([1]; BLI at 8 μg/mL) | MIC of Cefepime in combination with BLI ([1]; BLI at 16 μg/mL) | MIC of Ertapenem in combination with BLI ([1]; BLI at 16 μg/mL) | MIC of Ceftazidime in combination with BLI ([4]; BLI at 2 μg/mL) | MIC of Ceftazidime in combination with BLI ([4]; BLI at 4 μg/mL)
4 to 8 µg/mL: MIC of Meropenem in combination with BLI ([1]; BLI at 4 μg/mL) | MIC of Imipenem in combination with BLI ([1]; BLI at 8 μg/mL)
